Assay results published in US20170173011A1, “METHODS OF TREATING A BRUTON'S TYROSINE KINASE DISEASE OR DISORDER” (Celgene Avilomics Research, Inc., priority 2014, published 2017).

Columns and labels:
[1] = test system: NZBxNZW F1 mouse SLE model; assay: anti-dsDNA autoantibody quantitation by ELISA in serum, NZBxNZW F1 mouse SLE model; type: in vivo
Protocol: (§1) Compound 1 besylate was tested in the NZBxNZW Fl mouse SLE model. Treatment efficacy of Compound 1 besylate in this model was compared with cyclophosphamide, and a vehicle control. Principal end measures were autoantibodies against double stranded DNA (dsDNA) and protein in the urine.
Female NZBxNZW FI mice were housed in filter-top Nalgene cages, maintained on a 12-hour light/12-hour dark cycle with a room temperature of 70° F.+/−4° F. Mice were allowed to acclimate to the laboratory environment for approximately 5-7 days to ascertain their continued good health. Irradiated laboratory rodent chow and autoclaved water were supplied ad libitum.
Eighty NZBxNZW F1 female mice ˜12 weeks in age were obtained from Jackson Laboratory and were acclimatized for one week. After the acclimatization period was complete, each mouse that was successfully acclimatized was ear tagged and body weight recorded.
An initial bleed was performed prior to treatment initiation and serum prepared from the blood sampled. Serum samples were stored at −80° C. Following treatment initiation, blood was collected once every two weeks during the in-life phase for subsequent serum preparation.
(§2) Treatment was administered when the mice reached ˜20 weeks of age as follows:
(§3) Proteinuria: Urine was tested once every two weeks when the animals reached ˜13 weeks of age. Urine analysis was preformed midweek at approximately the same time of the day. Weekly urine analysis commenced when the animals reached the age of ˜18 weeks. Proteinuria levels were evaluated using Albustix urine strips. Serum was collected via collection of blood from tail bleeds when animals reached 13 weeks in age, then prior to initiating the treatment and thereafter twice a month.
Results. Individual autoantibody development in NZBxNZW Fl mice over time is depicted in FIG. 1A. Serum samples were collected from vehicle treated mice at the times indicated and an anti-dsDNA quantitation by ELISA performed. During the course of measurement from 18 weeks of age to 36 weeks of age, six (6) out of ten (10) mice developed autoantibodies against dsDNA greater than 400 KU/ml during the course of disease development and eight out of ten developed dsDNA antibodies greater than 200 kU/ml.

[2] = test system: NZBxNZW F1 mouse SLE model; assay: urine protein (proteinuria, Albustix strips) in NZBxNZW F1 mouse SLE model; type: in vivo
Protocol: as §1
Urine analysis was initiated when the animals reached 13-14 weeks of age. Initially urine analysis was performed once in two weeks. When the animals reached 18-19 weeks of age, weekly urine analysis for proteinuria levels was performed using Albustix® Reagent strips for Urinalysis (Bayer, Inc). Results were scored on a 0-4 scale using the following criteria:
When the mice reached 19 weeks of age, all animals were evaluated with respect to their proteinuria scores. Based on that evaluation, […] mice were selected and assigned to 6 groups of 10 mice each and one group of 5 mice. The mice were assigned such that the distributions of proteinuria scores among all groups were as uniform as possible.
as §2, §3

NZBxNZW F1 mice = conditions: literature; cited from earlier work
B6.sle1 mouse SLE model = conditions: literature (Hutcheson et al.); reduced anti histone, anti ssDNA, kidney lymphocytes and renal damage; cited from earlier work

C=CC(=O)Nc1cccc(Nc2nc(Nc3ccc(OCCOC)cc3)ncc2F)c1 [Compound 1 besylate, N-(3-(5-fluoro-2-(4-(2-methoxyethoxy)phenylamino)pyrimidin-4-ylamino)phenyl)acrylamide besylate]
number of treated mice that developed dsDNA antibodies over 400 kU/ml ([1]; 50 mg/kg BID PO for 12 weeks, vehicle: six (6) of ten (10)): 2 of ten (10) treated mice
number of mice with nearly complete suppression of anti-dsDNA development ([1]; 50 mg/kg BID PO, of ten treated mice): 6 mice
anti-dsDNA autoantibody development (FIG. 1C) ([1]; 50 mg/kg BID PO, weeks 29 through 33): reduced anti-dsDNA autoantibody development
number of mice with blunted anti-dsDNA responses at the end of the study ([1]; 50 mg/kg BID PO, weeks 35 and 36, of ten treated mice): 2 mice
protein levels measured in the urine relative to vehicle (FIG. 2) ([2]; 50 mg/kg BID PO for 12 weeks): reduced protein levels
protein levels measured in the urine relative to vehicle (FIG. 2) ([2]; 100 mg/kg QD PO for 12 weeks): reduced protein levels
urine protein, dose dependence ([2]; across dose groups): dose-associated trend of reduced urine protein

O=P1(N(CCCl)CCCl)NCCCO1 (centres unmarked) [Cyclophophamide, Cyclophosphamide]
effect on lupus nephritis / SLE in NZBxNZW F1 mice (NZBxNZW F1 mice): inhibit lupus nephritis

C=CC(=O)N1CCC[C@@H](n2nc(-c3ccc(Oc4ccccc4)cc3)c3c(N)ncnc32)C1 [PCI 32765/Ibrutinib]
efficacy in B6.sle1 mouse SLE model (B6.sle1 mouse SLE model): efficacious

N#CN1CCCC(n2nc(-c3ccc(Oc4ccc(F)cc4F)cc3)c(C(N)=O)c2N)C1 (centres unmarked) [PF-06250112]
effect on lupus nephritis / SLE in NZBxNZW F1 mice (NZBxNZW F1 mice): efficacious

CN1CCN(c2ccc(Nc3cc(-c4cccc(-n5ccc6cc(C7CC7)cc(F)c6c5=O)c4CO)cn(C)c3=O)nc2)CC1 [RN486]
effect on lupus nephritis / SLE in NZBxNZW F1 mice (NZBxNZW F1 mice): efficacious
